Drawing on patent publication US20100144755A1 (Glaxo Group Limited, priority 2006, published 2010), this text covers inhibition of neutrophilia for 22 compounds.

In the assay the test system is influx of neutrophils to the lung in LPS-challenged rats. The assay is described as follows: Rat LPS neutrophilia model. The format is in vivo. The conditions noted are these: LPS aerosol, intratracheal dosing, in at least one of the range of conditions tested, significance p<0.05. On the procedure: Rat LPS Neutrophilia Model
The effect of compounds on the influx of neutrophils to the lung in LPS-challenged rats is evaluated as follows. The test compound is suspended in one of the following solutions: 0.5% tween 80/PBS, 0.5% tween 80/saline, 10% EtOH/saline (with pH adjusted to 2.0, or 8.0 with HCl, or unadjusted), Saline @pH 2.0, 6.5 or 8.0, 0.5% Tragacanth, 1% DMSO/20% Encapsin/Saline, or acidified 5% Tragacanth. The suspension process may be aided by the use of a glass homogenizer. For intratracheal administration, the animals are anesthetized with inhaled isoflurane and placed in a supine position, the trachea is intubated with a steel gavage needle (1.5 inch, 22 gauge, small ball) or a Penn-Century Microsprayer Aerosolizer (model IA-1B) and 200 ul of dosing solution is delivered. The animals are visually monitored during the recovery process, which typically occurs within two minutes. It is noted that the test compounds may be alternatively administered via the microsprayer in a dry powder blend with a suitable excipient, such as lactose.
Rats treated with compound or vehicle (15 min-24 hours pretreatment) are exposed to an LPS aerosol (100 ug/ml) for 15 min. Four hours later the rats are euthanized with pentobarbital (100 mg/kg, i.p.) and the airways are lavaged with 5 washes of 5 ml of phosphate buffered saline. The harvested cells are stained (Diffquick) and counted to determine total and differential cell data. […] Inhibition of neutrophil levels relative to no compound controls is calculated based on the differential counts.
The data is obtained as % inhibition using a particular concentration and pretreat time.

Molecules are shown by their SMILES. Structures can show the parent of a compound that is named as a salt.

Turning to `Cc1ccc(NC(=O)c2ccsc2)cc1-c1nc(NC2CC(C)(C)NC(C)(C)C2)nc2c1ccc(=O)n2-c1c(F)cccc1F` [31(e), N-(3-{8-(2,6-difluorophenyl)-7-oxo-2-[(2,2,6,6-tetramethyl-4-piperidinyl)amino]-7,8-dihydropyrido[2,3-d]pyrimidin-4-yl}-4-methylphenyl)-3-thiophenecarboxamide], the inhibition of neutrophilia result is on record as “statistically significant inhibition”.

With `CCCNC(=O)c1ccc(C)c(-c2nc(NCCNC)nc3c2ccc(=O)n3-c2c(F)cccc2F)c1` [56(d), 3-(8-(2,6-difluorophenyl)-2-{[2-(methylamino)ethyl]amino}-7-oxo-7,8-dihydropyrido[2,3-d]pyrimidin-4-yl)-4-methyl-N-propylbenzamide], the inhibition of neutrophilia entry is recorded as “statistically significant inhibition”.

As for `Cc1ccc(C(=O)Nc2nccs2)cc1-c1nc(NCc2ncc[nH]2)nc2c1ccc(=O)n2-c1c(F)cccc1F` [79(c), 3-{8-(2,6-difluorophenyl)-2-[(1H-imidazol-2-ylmethyl)amino]-7-oxo-7,8-dihydropyrido[2,3-d]pyrimidin-4-yl}-4-methyl-N-1,3-thiazol-2-ylbenzamide], the inhibition of neutrophilia result was “statistically significant inhibition”.

With `CNC1CCN(c2nc(-c3cc(C(=O)NC(C)C)ccc3C)c3ccc(=O)n(-c4c(F)cccc4F)c3n2)CC1` [113(b), 3-{8-(2,6-difluorophenyl)-2-[4-(methylamino)-1-piperidinyl]-7-oxo-7,8-dihydropyrido[2,3-d]pyrimidin-4-yl}-4-methyl-N-(1-methylethyl)benzamide], the inhibition of neutrophilia entry was “statistically nonsignificant inhibition”.

For `CCN(CC)CCCNc1nc(-c2cc(C(=O)NC(C)C)ccc2C)c2ccc(=O)n(-c3c(F)cccc3F)c2n1` [118(b), 3-[2-{[3-(diethylamino)propyl]amino}-8-(2,6-difluorophenyl)-7-oxo-7,8-dihydropyrido[2,3-d]pyrimidin-4-yl]-4-methyl-N-(1-methylethyl)benzamide], the inhibition of neutrophilia entry is reported as “statistically nonsignificant inhibition”.

With `Cc1ccc(C(=O)NC(C)C)cc1-c1nc(N2CCC(N3CCC(C)CC3)CC2)nc2c1ccc(=O)n2-c1c(F)cccc1F` [163(c), 3-[8-(2,6-difluorophenyl)-2-(4-methyl-1,4′-bipiperidin-1′-yl)-7-oxo-7,8-dihydropyrido[2,3-d]pyrimidin-4-yl]-4-methyl-N-(1-methylethyl)benzamide], the inhibition of neutrophilia result is on record as “statistically nonsignificant inhibition”.

With `CNCCNc1nc(-c2cc(C(=O)NCC3CC3)ccc2C)c2ccc(=O)n(-c3c(F)cccc3F)c2n1` [Example 4], the inhibition of neutrophilia result is listed as “statistically significant inhibition”.

With `Cc1ccc(C(=O)NC2CC2)cc1-c1nc(N2CCC(N)CC2)nc2c1ccc(=O)n2-c1c(F)cccc1F` [Example 22, 3-[2-(4-amino-1-piperidinyl)-8-(2,6-difluorophenyl)-7-oxo-7,8-dihydropyrido[2,3-d]pyrimidin-4-yl]-N-cyclopropyl-4-methylbenzamide], the inhibition of neutrophilia result is “statistically significant inhibition”.

Consider `Cc1ccc(C(=O)NC2CC2)cc1-c1nc(NCc2ncc[nH]2)nc2c1ccc(=O)n2-c1c(F)cccc1F` [Example 23, N-cyclopropyl-3-{8-(2,6-difluorophenyl)-2-[(1H-imidazol-2-ylmethyl)amino]-7-oxo-7,8-dihydropyrido[2,3-d]pyrimidin-4-yl}-4-methylbenzamide], for which the inhibition of neutrophilia entry was “statistically nonsignificant inhibition”.

Take `Cc1ccc(C(=O)NCC2CC2)cc1-c1nc(N2CCC(N)CC2)nc2c1ccc(=O)n2-c1c(F)cccc1F` [Example 27, 3-[2-(4-amino-1-piperidinyl)-8-(2,6-difluorophenyl)-7-oxo-7,8-dihydropyrido[2,3-d]pyrimidin-4-yl]-N-(cyclopropylmethyl)-4-methylbenzamide]: the inhibition of neutrophilia entry is listed as “statistically significant inhibition”.

On to `Cc1ccc(C(=O)NCCc2ccccc2)cc1-c1nc(NC2CC(C)(C)NC(C)(C)C2)nc2c1ccc(=O)n2-c1c(F)cccc1F` [Example 28, 3-{8-(2,6-difluorophenyl)-7-oxo-2-[(2,2,6,6-tetramethyl-4-piperidinyl)amino]-7,8-dihydropyrido[2,3-d]pyrimidin-4-yl}-4-methyl-N-(2-phenylethyl)benzamide], for which the inhibition of neutrophilia result was “statistically nonsignificant inhibition”.

Consider `CNCCNc1nc(-c2cc(C(=O)NCCc3ccccc3)ccc2C)c2ccc(=O)n(-c3c(F)cccc3F)c2n1` [Example 29, 3-(8-(2,6-difluorophenyl)-2-{[2-(methylamino)ethyl]amino}-7-oxo-7,8-dihydropyrido[2,3-d]pyrimidin-4-yl)-4-methyl-N-(2-phenylethyl)benzamide], for which the inhibition of neutrophilia entry is “statistically significant inhibition”.

Turning to `Cc1ccc(C(=O)NC(C)C)cc1-c1nc(N(C)CCCN(C)C)nc2c1ccc(=O)n2-c1c(F)cccc1F` [Example 34, 3-{8-(2,6-difluorophenyl)-2-[[3-(dimethylamino)propyl](methyl)amino]-7-oxo-7,8-dihydropyrido[2,3-d]pyrimidin-4-yl}-4-methyl-N-(1-methylethyl)benzamide], the inhibition of neutrophilia result is “statistically significant inhibition”.

In the case of `Cc1ccc(NC(=O)c2cccc3cc[nH]c23)cc1-c1nc(NC(CO)CO)nc2c1ccc(=O)n2-c1c(F)cccc1F` [Example 44, N-[3-(8-(2,6-difluorophenyl)-2-{[2-hydroxy-1-(hydroxymethyl)ethyl]amino}-7-oxo-7,8-dihydropyrido[2,3-d]pyrimidin-4-yl)-4-methylphenyl]-1H-indole-7-carboxamide trifluoroacetate], the inhibition of neutrophilia entry is listed as “statistically significant inhibition”.

As for `CNCCNc1nc(-c2cc(C(=O)NC(C)C)ccc2C)c2ccc(=O)n(-c3c(F)cccc3F)c2n1` [Example 57, 3-(8-(2,6-difluorophenyl)-2-{[2-(methylamino)ethyl]amino}-7-oxo-7,8-dihydropyrido[2,3-d]pyrimidin-4-yl)-4-methyl-N-(1-methylethyl)benzamide], the inhibition of neutrophilia result is “statistically significant inhibition”.

Take `CNCCNc1nc(-c2cc(C(=O)NC3CCCC3)ccc2C)c2ccc(=O)n(-c3c(F)cccc3F)c2n1` [Example 58, N-cyclopentyl-3-(8-(2,6-difluorophenyl)-2-{[2-(methylamino)ethyl]amino}-7-oxo-7,8-dihydropyrido[2,3-d]pyrimidin-4-yl)-4-methylbenzamide]: the inhibition of neutrophilia result is recorded as “statistically significant inhibition”.

Consider `CNCCNc1nc(-c2cc(C(=O)NCc3ccccc3)ccc2C)c2ccc(=O)n(-c3c(F)cccc3F)c2n1` [Example 59, 3-(8-(2,6-difluorophenyl)-2-{[2-(methylamino)ethyl]amino}-7-oxo-7,8-dihydropyrido[2,3-d]pyrimidin-4-yl)-4-methyl-N-(phenylmethyl)benzamide], for which the inhibition of neutrophilia result is given as “statistically significant inhibition”.

As for `CNCCNc1nc(-c2cc(C(=O)Nc3ccc(F)cc3)ccc2C)c2ccc(=O)n(-c3c(F)cccc3F)c2n1` [Example 60, 3-(8-(2,6-difluorophenyl)-2-{[2-(methylamino)ethyl]amino}-7-oxo-7,8-dihydropyrido[2,3-d]pyrimidin-4-yl)-N-(4-fluorophenyl)-4-methylbenzamide], the inhibition of neutrophilia result is “statistically significant inhibition”.

As for `CNCCNc1nc(-c2cc(C(=O)Nc3nccs3)ccc2C)c2ccc(=O)n(-c3c(F)cccc3F)c2n1` [Example 61, 3-(8-(2,6-difluorophenyl)-2-{[2-(methylamino)ethyl]amino}-7-oxo-7,8-dihydropyrido[2,3-d]pyrimidin-4-yl)-4-methyl-N-1,3-thiazol-2-ylbenzamide], the inhibition of neutrophilia entry is on record as “statistically significant inhibition”.

With `Cc1ccc(C(=O)Nc2ccc(F)cc2)cc1-c1nc(NC2CC(C)(C)NC(C)(C)C2)nc2c1ccc(=O)n2-c1c(F)cccc1F` [Example 66, 3-{8-(2,6-difluorophenyl)-7-oxo-2-[(2,2,6,6-tetramethyl-4-piperidinyl)amino]-7,8-dihydropyrido[2,3-d]pyrimidin-4-yl}-N-(4-fluorophenyl)-4-methylbenzamide], the inhibition of neutrophilia result is on record as “statistically significant inhibition”.

On to `Cc1ccc(C(=O)Nc2nccs2)cc1-c1nc(NC2CC(C)(C)NC(C)(C)C2)nc2c1ccc(=O)n2-c1c(F)cccc1F` [Example 67, 3-{8-(2,6-difluorophenyl)-7-oxo-2-[(2,2,6,6-tetramethyl-4-piperidinyl)amino]-7,8-dihydropyrido[2,3-d]pyrimidin-4-yl}-4-methyl-N-1,3-thiazol-2-ylbenzamide], for which the inhibition of neutrophilia result is recorded as “statistically nonsignificant inhibition”.

Take `Cc1ccc(C(=O)NC(C)C)cc1-c1nc(N2CCC(N)CC2)nc2c1ccc(=O)n2-c1c(F)cccc1F` [Example 68, 3-[2-(4-amino-1-piperidinyl)-8-(2,6-difluorophenyl)-7-oxo-7,8-dihydropyrido[2,3-d]pyrimidin-4-yl]-4-methyl-N-(1-methylethyl)benzamide]: the inhibition of neutrophilia result was “statistically significant inhibition”.
